Where “and” joins values, the source holds several entries; their conditions need not be identical. Identical values can stand only once. Like-named read-outs stand apart in the source and are kept apart here.
Columns and labels:
Assay type in all cases: biochemical
CLK2 = biological target: T1, CLK2 (Homo sapiens, UniProt P49760); assay: Radiometric protein kinase assay (33PanQinase Activity Assay), CLK2; settings: read-out: IC50 on CLK2 (most potent CLK2 inhibitors)
T1 construct: GST-fusion or His-tag (not specified per kinase); purchased ProQinase GmbH; host or cells: Sf9 insect cells or E. coli (not specified per kinase)
T1 sequence (P49760 whole entry, the tested form may be a part): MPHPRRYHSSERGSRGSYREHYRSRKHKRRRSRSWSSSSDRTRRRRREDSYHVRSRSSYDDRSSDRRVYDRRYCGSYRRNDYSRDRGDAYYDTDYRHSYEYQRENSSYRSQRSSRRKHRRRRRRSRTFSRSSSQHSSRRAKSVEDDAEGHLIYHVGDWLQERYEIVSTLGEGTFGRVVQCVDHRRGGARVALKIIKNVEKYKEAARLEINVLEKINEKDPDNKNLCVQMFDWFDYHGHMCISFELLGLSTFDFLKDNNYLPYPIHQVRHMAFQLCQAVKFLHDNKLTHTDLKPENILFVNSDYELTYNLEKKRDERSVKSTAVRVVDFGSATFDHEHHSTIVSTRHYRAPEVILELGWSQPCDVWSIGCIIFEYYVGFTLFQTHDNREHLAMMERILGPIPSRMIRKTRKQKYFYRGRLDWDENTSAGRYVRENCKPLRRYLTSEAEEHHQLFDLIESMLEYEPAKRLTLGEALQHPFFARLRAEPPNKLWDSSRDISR
Description: (§1) Assays were performed by ProQinase GmbH (Engesserstr. 4, D-79108 Freiburg, Germany. www.proqinase.com). The IC50 profile of all compounds was determined using 12 protein kinases (CDK2/cyclin E, CK1ε, CLK1, 2, 3, 4, DYRK1A, 1B, 2, 3, 4, GSK3β).
(§2) The compounds were provided as […] in 100% DMSO. Prior to testing, the 1 μM stock solutions were subjected to a serial, semi-logarithmic dilution using 100% DMSO as a solvent. […] In the process, 90 μl H2O were added to each well of each compound dilution plate. To minimize potential precipitation, the H2O was added to each plate only a few minutes before the transfer of the compound solutions into the assay plates. The plate was shaken thoroughly, resulting in a compound dilution plate/10% DMSO.
(§3) For the assays (see below), 5 μL solution from each well of the compound dilution plates/10% DMSO were transferred into the assay plates. The final volume of the assay was 50 μL. All compounds were tested at 10 final assay concentrations in the range from 10 μM to 30 nM. The final DMSO concentration in the reaction cocktails was 1% in all cases.
(§4) All protein kinases provided by ProQinase were expressed in Sf9 insect cells or in E. coli as recombinant GST-fusion proteins or His-tagged proteins, either as full-length or enzymatically active fragments. All kinases were produced from human cDNAs and purified by either GSH-affinity chromatography or immobilized metal. Affinity tags were removed from a number of kinases during purification. The purity of the protein kinases was examined by SDS-PAGE/Coomassie staining, the identity was checked by mass spectroscopy.
(§5) A radiometric protein kinase assay (33PanQinase® Activity Assay) was used for measuring the kinase activity of the 12 protein kinases. All kinase assays were performed in 96-well FlashPlates™ from PerkinElmer (Boston, MA, USA) in a 50 μL reaction volume. The reaction cocktail was pipetted in four steps in the following order: • 25 μL of assay buffer (standard buffer/[γ-^33P]-ATP), • 10 μL of ATP solution (in H2O), • 5 μL of test compound (in 10% DMSO), • 10 μL of enzyme/substrate mixture.
(§6) The reaction cocktails were incubated at 30° C. for 60 minutes. The reaction was stopped with 50 μL of 2% (v/v) H3PO4, plates were aspirated and washed two times with 200 μL 0.9% (w/v) NaCl. Incorporation of ^33Pi was determined with a microplate scintillation counter (Microbeta, Wallac). The IC50 values for all compounds were calculated from the dose response curves
(§7) As a parameter for assay quality, the Z′-factor (Zhang et al., J. Biomol. Screen. 2: 67-73, 1999) for the low and high controls of each assay plate (n=8) was used. ProQinase's criterion for repetition of an assay plate is a Z′-factor below 0.4 (Iversen et al., J. Biomol. Screen. 3: 247-252, 2006).

DYRK1A = biological target: T2, DYRK1A (Homo sapiens, UniProt Q13627); assay: Radiometric protein kinase assay (33PanQinase Activity Assay), DYRK1A; settings: for Selectivity Class DYRK1A vs. CLK1: ratio of IC50 on CLK1 over IC50 on DYRK1A; for Selectivity Class DYRK1A vs. DYRK1B: ratio of IC50 on DYRK1B over IC50 on DYRK1A
T2 construct: GST-fusion or His-tag (not specified per kinase); purchased ProQinase GmbH; host or cells: Sf9 insect cells or E. coli (not specified per kinase)
Outline: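 Recombinant human kinase, expressed in Sf9 or E. coli, in a radiometric [γ-33P]-ATP assay at 30 °C for 60 min. Compounds tested at 10 concentrations from 10 μM to 30 nM, 1% DMSO final. 33Pi incorporation measured by scintillation counting; IC50 from dose-response curves.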

CLK1 = biological target: T3, CLK1 (Homo sapiens, UniProt P49759); assay: Radiometric protein kinase assay (33PanQinase Activity Assay), CLK1; settings: read-out: Potency Class CLK1
T3 construct: GST-fusion or His-tag (not specified per kinase); purchased ProQinase GmbH; host or cells: Sf9 insect cells or E. coli (not specified per kinase)
T3 sequence (P49759 whole entry, the tested form may be a part): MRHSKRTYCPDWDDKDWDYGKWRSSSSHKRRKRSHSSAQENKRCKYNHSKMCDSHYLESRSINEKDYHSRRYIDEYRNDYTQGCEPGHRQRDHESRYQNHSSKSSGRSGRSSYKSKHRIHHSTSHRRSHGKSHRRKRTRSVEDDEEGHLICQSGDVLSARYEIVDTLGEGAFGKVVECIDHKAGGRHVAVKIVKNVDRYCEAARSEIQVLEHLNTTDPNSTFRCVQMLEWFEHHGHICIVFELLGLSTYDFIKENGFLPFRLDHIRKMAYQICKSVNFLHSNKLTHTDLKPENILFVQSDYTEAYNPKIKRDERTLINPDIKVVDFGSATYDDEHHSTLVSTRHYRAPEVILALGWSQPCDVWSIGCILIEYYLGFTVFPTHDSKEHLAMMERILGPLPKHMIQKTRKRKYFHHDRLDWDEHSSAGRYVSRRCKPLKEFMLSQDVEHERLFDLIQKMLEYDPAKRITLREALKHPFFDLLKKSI
Outline: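 Kinase activity is measured radiometrically as 33P transfer from [γ-33P]-ATP to substrate by recombinant human enzyme over 60 min at 30 °C. Test compounds span 10 μM to 30 nM (10 points, 1% DMSO), and IC50 values come from the resulting dose-response curves.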

DYRK3 = biological target: T4, DYRK3 (Homo sapiens, UniProt O43781); assay: Radiometric protein kinase assay (33PanQinase Activity Assay), DYRK3; settings: read-out: IC50 on DYRK3 (most potent DYRK3 inhibitors)
T4 construct: GST-fusion or His-tag (not specified per kinase); purchased ProQinase GmbH; host or cells: Sf9 insect cells or E. coli (not specified per kinase)
T4 sequence (O43781 1-588): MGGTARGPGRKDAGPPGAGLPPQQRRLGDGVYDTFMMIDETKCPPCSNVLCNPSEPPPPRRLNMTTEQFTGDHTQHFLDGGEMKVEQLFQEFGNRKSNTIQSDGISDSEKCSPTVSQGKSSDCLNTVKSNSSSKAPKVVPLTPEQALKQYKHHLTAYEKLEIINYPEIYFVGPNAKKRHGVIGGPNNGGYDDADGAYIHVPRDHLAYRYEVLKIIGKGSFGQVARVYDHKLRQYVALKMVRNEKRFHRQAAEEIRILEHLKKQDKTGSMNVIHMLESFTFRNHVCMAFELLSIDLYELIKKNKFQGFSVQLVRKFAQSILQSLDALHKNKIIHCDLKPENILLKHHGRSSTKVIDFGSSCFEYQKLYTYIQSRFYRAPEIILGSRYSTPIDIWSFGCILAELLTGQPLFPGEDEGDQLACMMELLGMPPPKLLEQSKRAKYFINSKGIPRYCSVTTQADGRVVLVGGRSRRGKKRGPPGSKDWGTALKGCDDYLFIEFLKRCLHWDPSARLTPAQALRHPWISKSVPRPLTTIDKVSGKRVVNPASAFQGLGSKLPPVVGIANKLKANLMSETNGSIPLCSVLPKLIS
Description: as §1, §2, §3, §4, §5, §6, §7

CLK4 = biological target: T5, CLK4 (Homo sapiens, UniProt Q9HAZ1); assay: Radiometric protein kinase assay (33PanQinase Activity Assay), CLK4; settings: read-out: IC50 on CLK4 (most potent CLK4 inhibitors)
T5 construct: GST-fusion or His-tag (not specified per kinase); purchased ProQinase GmbH; host or cells: Sf9 insect cells or E. coli (not specified per kinase)
T5 sequence (Q9HAZ1 whole entry, the tested form may be a part): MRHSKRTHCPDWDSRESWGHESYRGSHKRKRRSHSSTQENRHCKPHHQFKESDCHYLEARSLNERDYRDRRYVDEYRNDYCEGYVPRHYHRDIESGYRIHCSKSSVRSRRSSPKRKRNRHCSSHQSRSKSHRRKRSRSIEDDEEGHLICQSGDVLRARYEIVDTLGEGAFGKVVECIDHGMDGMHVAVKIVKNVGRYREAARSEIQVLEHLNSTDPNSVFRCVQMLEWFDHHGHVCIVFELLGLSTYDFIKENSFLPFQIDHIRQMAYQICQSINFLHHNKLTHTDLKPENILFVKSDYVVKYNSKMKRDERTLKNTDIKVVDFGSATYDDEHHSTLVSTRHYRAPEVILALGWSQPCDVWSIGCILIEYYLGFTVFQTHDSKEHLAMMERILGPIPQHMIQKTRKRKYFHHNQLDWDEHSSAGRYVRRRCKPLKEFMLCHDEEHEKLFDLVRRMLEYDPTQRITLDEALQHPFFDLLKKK
Description: as §1, §2, §3, §4, §5, §6, §7

DYRK2 = biological target: T6, DYRK2 (Homo sapiens, UniProt Q92630); assay: Radiometric protein kinase assay (33PanQinase Activity Assay), DYRK2; settings: read-out: IC50 on DYRK2 (most potent DYRK2 inhibitors)
T6 construct: GST-fusion or His-tag (not specified per kinase); purchased ProQinase GmbH; host or cells: Sf9 insect cells or E. coli (not specified per kinase)
T6 sequence (Q92630 1-601): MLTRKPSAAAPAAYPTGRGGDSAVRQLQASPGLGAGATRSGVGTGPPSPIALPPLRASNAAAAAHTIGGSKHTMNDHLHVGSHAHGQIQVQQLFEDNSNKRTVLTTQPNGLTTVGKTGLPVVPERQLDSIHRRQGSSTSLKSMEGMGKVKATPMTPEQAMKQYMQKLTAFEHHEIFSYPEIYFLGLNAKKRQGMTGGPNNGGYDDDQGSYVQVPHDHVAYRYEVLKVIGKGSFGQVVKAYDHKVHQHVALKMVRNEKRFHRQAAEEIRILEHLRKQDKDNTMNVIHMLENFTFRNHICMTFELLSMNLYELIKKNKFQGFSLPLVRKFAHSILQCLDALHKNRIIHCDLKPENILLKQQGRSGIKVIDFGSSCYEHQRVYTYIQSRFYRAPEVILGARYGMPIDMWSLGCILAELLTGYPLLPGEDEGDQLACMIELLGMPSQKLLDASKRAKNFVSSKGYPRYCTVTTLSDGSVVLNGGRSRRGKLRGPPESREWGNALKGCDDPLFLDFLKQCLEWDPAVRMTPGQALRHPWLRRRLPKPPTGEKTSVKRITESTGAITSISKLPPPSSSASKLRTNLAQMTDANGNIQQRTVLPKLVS
Description: as §1, §2, §3, §4, §5, §6, §7

[1] = class by IC50 on DYRK1A, from dose-response curves, read-out: Potency Class DYRK1A
[2] = class by IC50 on CLK1, from dose-response curves
[3] = IC50 class A to E, read-out: Potency Class DYRK1A

Compound | IC50 (CLK2) [nM] | IC50 (DYRK1A; [1]) [nM] | Selectivity Class DYRK1A vs. CLK1 (DYRK1A) | Selectivity Class DYRK1A vs. DYRK1B (DYRK1A) | IC50 (CLK1; [2]) [nM] | IC50 (DYRK1A; [3]) | IC50 (DYRK1A; read-out: IC50 on DYRK1A (most potent DYRK1A inhibitors)) [nM] | IC50 (DYRK3) [nM] | IC50 (CLK1; IC50 class A to E) [nM] | IC50 (CLK4) [nM] | IC50 (DYRK2) [nM]
O=C1NC(NC23CC4CC(CC(C4)C2)C3)=N/C1=C\c1ccc2nccnc2c1 [Compound 17, (4Z)-2-(1-adamantylamino)-4-(quinoxalin-6-ylmethylene)-1H-imidazol-5-one] | ≤ 100 | 10 to 25 | II (ratio between 2 and 10 fold) | II (ratio between 2 and 10 fold) | 25 to 50 | – | – | – | – | – | –
O=C1NC(NC23CC4CC(CC(C4)C2)C3)=N/C1=C\c1ccc2ncccc2c1 [Compound 49, (4Z)-2-(1-adamantylamino)-4-(6-quinolylmethylene)-1H-imidazol-5-one] | ≤ 100 | 10 to 25 | II (ratio between 2 and 10 fold) | III (ratio between 0.5 and 2 fold) | 10 to 25 | 10 to 25 nM and 5 to 10 nM | ≤ 10 | ≤ 250 | 10 to 25 | – | –
O=C1NC(NC23CC4CC(CC(C4)C2)C3)=N/C1=C\c1ccc2cnccc2c1 [Compound 61, (4Z)-2-(1-adamantylamino)-4-(6-isoquinolylmethylene)-1H-imidazol-5-one] | ≤ 100 | 25 to 50 | III (ratio between 0.5 and 2 fold) | III (ratio between 0.5 and 2 fold) | 25 to 50 | – | – | ≤ 250 | – | – | –
COC[C@H](NC1=N/C(=C\c2ccc3ncccc3n2)C(=O)N1)c1ccccc1 [Compound 71, (4Z)-2-[[(1R)-2-methoxy-1-phenyl-ethyl]amino]-4-(1,5-naphthyridin-2-ylmethylene)-1H-imidazol-5-one] | – | > 50 | IV (ratio between 0.1 and 0.5 fold) | II (ratio between 2 and 10 fold) | 10 to 25 | > 50 nM | – | – | 10 to 25 | ≤ 10 | –
CN1C(=O)/C(=C/c2ccc3ncccc3c2)N=C1NC1CCCCC1 [Compound 84, (5Z)-2-(Cyclohexylamino)-3-methyl-5-(quinolin-6-ylmethylene)imidazol-4-one] | – | > 50 | III (ratio between 0.5 and 2 fold) | III (ratio between 0.5 and 2 fold) | > 50 | – | – | – | – | – | –
CN1C(=O)/C(=C/c2ccc3ncccc3c2)N=C1NC1CCCCCC1 [Compound 85, (5Z)-2-(Cycloheptylamino)-3-methyl-5-(quinolin-6-ylmethylene)imidazol-4-one] | – | > 50 | IV (ratio between 0.1 and 0.5 fold) | III (ratio between 0.5 and 2 fold) | > 50 | – | – | – | – | – | –
CN1C(=O)/C(=C/c2ccc3cnccc3c2)N=C1NC1CCCCC1 [Compound 86, (5Z)-2-(Cyclohexylamino)-3-methyl-5-(isoquinolin-6-ylmethylene)imidazol-4-one] | – | > 50 | III (ratio between 0.5 and 2 fold) | IV (ratio between 0.1 and 0.5 fold) | > 50 | – | – | – | – | – | –
CN1C(=O)/C(=C/c2ccc3cnccc3c2)N=C1NC1CCCCCC1 [Compound 87, (5Z)-2-(Cycloheptylamino)-3-methyl-5-(isoquinolin-6-ylmethylene)imidazol-4-one] | – | > 50 | IV (ratio between 0.1 and 0.5 fold) | IV (ratio between 0.1 and 0.5 fold) | > 50 | – | – | ≤ 250 | – | – | ≤ 250
CN1C(=O)/C(=C/c2ccc3ncncc3c2)N=C1NC1CCCCC1 [Compound 88, (5Z)-2-(Cyclohexylamino)-3-methyl-5-(quinazolin-6-ylmethylene)imidazol-4-one] | – | > 50 | III (ratio between 0.5 and 2 fold) | III (ratio between 0.5 and 2 fold) | > 50 | – | – | – | – | – | –
CN1C(=O)/C(=C/c2ccc3ncncc3c2)N=C1NC1CCCCCC1 [Compound 89, (5Z)-2-(Cycloheptylamino)-3-methyl-5-(quinazolin-6-ylmethylene)imidazol-4-one] | – | > 50 | III (ratio between 0.5 and 2 fold) | III (ratio between 0.5 and 2 fold) | > 50 | – | – | – | – | – | –

— patent US20250340538A1, “IMIDAZOLONE DERIVATIVES AS INHIBITORS OF PROTEIN KINASES IN PARTICULAR DYRK1A, CLK1 AND/OR CLK4” (PERHA PHARMACEUTICALS, priority 2021, published 2025)
